Experiments:
[1] = target: T1, Alpha-2C adrenergic receptor (Homo sapiens, UniProt P18825); assay type: functional
T1 sequence (P18825 whole entry): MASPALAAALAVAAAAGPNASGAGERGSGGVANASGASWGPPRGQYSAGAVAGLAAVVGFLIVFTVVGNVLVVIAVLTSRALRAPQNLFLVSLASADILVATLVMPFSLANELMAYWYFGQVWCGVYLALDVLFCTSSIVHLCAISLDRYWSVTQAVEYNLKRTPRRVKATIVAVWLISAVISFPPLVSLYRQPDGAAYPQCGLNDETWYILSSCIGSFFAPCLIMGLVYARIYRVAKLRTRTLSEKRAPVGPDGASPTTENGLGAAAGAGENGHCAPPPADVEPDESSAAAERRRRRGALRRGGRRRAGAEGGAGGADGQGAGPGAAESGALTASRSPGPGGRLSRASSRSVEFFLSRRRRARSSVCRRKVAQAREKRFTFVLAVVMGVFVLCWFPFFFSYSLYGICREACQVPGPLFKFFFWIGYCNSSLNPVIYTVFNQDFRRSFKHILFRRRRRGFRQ

[2] = target: Growth hormone secretagogue receptor type 1 (Homo sapiens, UniProt Q92847)
Growth hormone secretagogue receptor type 1, sequence (Q92847 whole entry): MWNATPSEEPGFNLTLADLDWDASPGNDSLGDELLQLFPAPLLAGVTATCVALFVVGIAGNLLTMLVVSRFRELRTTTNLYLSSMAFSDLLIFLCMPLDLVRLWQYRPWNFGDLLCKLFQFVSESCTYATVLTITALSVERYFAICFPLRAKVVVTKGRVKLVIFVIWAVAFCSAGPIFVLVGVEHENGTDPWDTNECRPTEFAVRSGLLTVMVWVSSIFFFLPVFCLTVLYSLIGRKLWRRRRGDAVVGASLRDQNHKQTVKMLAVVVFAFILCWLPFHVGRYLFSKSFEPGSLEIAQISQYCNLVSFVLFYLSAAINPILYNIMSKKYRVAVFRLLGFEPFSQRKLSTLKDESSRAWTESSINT

[3] = target: Glutamate receptor ionotropic, NMDA 1 (Rattus norvegicus, UniProt P35439)
[4] = target: 5-hydroxytryptamine receptor 2B (Homo sapiens, UniProt P41595); assay type: functional, cell-based
5-hydroxytryptamine receptor 2B, sequence (P41595 whole entry): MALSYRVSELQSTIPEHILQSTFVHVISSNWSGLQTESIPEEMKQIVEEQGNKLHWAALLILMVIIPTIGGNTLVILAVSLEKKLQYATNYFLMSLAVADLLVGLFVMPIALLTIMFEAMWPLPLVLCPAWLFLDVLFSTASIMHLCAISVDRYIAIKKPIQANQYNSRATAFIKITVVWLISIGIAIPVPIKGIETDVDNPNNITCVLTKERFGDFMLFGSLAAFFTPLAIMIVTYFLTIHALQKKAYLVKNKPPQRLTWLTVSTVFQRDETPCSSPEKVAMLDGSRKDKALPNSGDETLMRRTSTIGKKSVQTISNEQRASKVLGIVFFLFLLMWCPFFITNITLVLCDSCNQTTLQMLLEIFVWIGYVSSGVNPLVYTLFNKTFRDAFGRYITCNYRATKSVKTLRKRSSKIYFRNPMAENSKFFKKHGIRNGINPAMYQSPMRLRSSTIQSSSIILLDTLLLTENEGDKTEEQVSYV

Mu-type opioid receptor [5] = target: T2, Mu-type opioid receptor (Homo sapiens, UniProt P35372); assay: biochemical; assay type: functional
T2 sequence (P35372 whole entry): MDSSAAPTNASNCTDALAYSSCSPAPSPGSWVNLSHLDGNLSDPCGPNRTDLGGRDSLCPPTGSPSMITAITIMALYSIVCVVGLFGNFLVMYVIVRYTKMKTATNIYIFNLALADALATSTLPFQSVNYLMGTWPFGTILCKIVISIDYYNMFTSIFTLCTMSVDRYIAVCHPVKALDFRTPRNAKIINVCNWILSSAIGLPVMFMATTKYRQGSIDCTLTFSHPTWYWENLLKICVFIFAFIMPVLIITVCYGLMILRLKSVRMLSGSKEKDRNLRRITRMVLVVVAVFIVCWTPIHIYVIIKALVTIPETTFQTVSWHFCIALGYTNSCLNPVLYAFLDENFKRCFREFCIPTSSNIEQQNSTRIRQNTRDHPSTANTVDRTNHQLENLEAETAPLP

[6] = target: 3',5'-cyclic-AMP phosphodiesterase 4D (Homo sapiens, UniProt Q08499); assay type: functional
3',5'-cyclic-AMP phosphodiesterase 4D, sequence (Q08499 whole entry): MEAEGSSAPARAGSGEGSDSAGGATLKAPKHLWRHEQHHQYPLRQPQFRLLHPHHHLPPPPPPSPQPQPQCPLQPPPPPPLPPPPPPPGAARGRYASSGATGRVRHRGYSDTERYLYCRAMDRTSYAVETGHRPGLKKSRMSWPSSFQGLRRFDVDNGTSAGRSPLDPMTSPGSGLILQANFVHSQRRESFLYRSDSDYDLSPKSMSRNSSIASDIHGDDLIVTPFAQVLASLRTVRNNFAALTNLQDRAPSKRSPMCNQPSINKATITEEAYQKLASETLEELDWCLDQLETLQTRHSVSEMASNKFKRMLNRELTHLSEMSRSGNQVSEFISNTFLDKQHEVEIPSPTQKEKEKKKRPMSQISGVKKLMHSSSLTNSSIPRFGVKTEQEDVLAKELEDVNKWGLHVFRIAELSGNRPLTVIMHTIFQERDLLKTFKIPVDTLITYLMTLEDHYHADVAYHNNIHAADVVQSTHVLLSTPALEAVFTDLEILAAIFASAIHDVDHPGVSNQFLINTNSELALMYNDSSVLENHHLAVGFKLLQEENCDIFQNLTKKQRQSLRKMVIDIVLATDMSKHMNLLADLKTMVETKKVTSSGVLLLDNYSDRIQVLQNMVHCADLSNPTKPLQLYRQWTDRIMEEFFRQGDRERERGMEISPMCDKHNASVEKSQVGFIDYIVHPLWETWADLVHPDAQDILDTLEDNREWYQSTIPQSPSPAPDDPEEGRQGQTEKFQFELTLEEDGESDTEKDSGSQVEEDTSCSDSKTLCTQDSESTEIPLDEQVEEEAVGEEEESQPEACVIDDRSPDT

Progesterone receptor = target: T3, Progesterone receptor (Homo sapiens, UniProt P06401); assay type: functional
T3 sequence (P06401 whole entry): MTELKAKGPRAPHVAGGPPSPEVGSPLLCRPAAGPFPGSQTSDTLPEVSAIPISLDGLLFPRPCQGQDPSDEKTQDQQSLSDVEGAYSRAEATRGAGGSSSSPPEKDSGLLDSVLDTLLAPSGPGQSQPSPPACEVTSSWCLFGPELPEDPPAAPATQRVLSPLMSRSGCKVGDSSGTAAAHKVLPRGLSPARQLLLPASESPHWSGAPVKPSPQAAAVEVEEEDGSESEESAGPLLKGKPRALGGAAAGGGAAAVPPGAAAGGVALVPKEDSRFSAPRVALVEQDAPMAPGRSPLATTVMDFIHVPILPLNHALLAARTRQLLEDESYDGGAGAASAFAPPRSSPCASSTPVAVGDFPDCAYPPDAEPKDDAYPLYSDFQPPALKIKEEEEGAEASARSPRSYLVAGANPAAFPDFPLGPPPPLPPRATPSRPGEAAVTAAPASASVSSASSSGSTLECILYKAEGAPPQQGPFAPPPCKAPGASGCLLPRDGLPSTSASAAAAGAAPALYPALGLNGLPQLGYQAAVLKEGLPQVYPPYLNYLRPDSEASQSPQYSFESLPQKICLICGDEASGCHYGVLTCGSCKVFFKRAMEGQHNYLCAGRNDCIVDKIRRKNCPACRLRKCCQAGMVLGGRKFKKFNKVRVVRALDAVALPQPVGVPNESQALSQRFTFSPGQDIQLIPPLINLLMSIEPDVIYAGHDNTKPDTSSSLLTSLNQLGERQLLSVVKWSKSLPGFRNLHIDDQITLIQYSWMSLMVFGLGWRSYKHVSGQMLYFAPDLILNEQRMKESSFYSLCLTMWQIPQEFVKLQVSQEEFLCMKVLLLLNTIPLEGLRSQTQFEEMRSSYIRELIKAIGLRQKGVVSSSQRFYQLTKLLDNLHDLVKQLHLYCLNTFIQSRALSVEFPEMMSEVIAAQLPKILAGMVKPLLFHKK

[7] = target: Sodium-dependent noradrenaline transporter (Homo sapiens, UniProt P23975)
Sodium-dependent noradrenaline transporter, sequence (P23975 whole entry): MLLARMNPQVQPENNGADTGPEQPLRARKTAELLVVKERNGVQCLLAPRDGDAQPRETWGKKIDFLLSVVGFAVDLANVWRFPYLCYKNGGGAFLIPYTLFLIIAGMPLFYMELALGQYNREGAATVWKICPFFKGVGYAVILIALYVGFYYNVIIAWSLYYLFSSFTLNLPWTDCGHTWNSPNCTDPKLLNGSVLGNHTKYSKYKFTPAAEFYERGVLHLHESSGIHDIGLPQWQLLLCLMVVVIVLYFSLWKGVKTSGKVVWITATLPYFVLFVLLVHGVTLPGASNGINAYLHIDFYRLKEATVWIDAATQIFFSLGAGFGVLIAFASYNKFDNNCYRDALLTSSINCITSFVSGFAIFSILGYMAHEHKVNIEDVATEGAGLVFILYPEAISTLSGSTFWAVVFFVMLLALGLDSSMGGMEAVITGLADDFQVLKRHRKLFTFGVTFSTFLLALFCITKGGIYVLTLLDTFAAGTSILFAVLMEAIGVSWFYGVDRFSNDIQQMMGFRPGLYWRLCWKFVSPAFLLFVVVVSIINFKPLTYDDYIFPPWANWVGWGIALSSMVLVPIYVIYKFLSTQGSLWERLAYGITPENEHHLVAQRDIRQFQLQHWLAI

Histamine H3 receptor = Histamine H3 receptor (Homo sapiens, UniProt Q9Y5N1)
Histamine H3 receptor, sequence (Q9Y5N1 whole entry): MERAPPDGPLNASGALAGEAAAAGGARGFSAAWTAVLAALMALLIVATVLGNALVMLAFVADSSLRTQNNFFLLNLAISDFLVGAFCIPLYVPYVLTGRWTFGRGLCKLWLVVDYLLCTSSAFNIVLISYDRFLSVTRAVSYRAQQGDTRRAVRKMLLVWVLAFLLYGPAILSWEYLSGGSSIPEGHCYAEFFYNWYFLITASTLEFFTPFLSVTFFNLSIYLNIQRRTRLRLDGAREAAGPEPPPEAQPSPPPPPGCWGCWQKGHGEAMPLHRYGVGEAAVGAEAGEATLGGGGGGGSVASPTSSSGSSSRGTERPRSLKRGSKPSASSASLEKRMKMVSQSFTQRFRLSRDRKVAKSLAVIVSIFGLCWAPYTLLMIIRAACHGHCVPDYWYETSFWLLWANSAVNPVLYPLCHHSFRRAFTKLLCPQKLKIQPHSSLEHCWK

[8] = target: T4, Alpha-2B adrenergic receptor (Homo sapiens, UniProt P18089)
T4 sequence (P18089 whole entry): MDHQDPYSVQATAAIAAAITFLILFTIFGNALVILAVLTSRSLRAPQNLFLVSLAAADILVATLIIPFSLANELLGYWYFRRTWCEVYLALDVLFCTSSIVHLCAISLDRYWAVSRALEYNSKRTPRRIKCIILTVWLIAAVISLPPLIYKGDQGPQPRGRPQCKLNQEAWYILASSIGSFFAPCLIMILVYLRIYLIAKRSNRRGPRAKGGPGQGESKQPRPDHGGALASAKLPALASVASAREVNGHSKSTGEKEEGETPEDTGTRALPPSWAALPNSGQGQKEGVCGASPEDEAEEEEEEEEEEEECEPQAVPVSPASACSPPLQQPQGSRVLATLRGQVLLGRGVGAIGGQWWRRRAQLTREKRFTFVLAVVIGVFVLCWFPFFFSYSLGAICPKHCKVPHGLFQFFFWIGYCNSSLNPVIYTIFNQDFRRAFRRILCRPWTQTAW

Mu-type opioid receptor [9] = target: T2, Mu-type opioid receptor
Note: assay procedure not described here.

SMILES | AC50 [1] [µM] | AC50 [2] [µM] | AC50 [3] [µM] | AC50 [4] [µM] | AC50 (Mu-type opioid receptor [5]) [µM] | AC50 [6] [µM] | AC50 (Progesterone receptor) [µM] | AC50 [7] [µM] | AC50 (Histamine H3 receptor) [µM] | AC50 [8] [µM] | AC50 (Mu-type opioid receptor [9]) [µM]
C[N+](C)(C)CCOP(=O)([O-])OC[C@H](O)CO | > 30 | > 30 | > 30 | > 30 | > 30 | > 30 | > 30 | > 30 | > 30 |  | 
CN(C)C/C=C/C(=O)Nc1cc2c(Nc3ccc(F)c(Cl)c3)ncnc2cc1O[C@H]1CCOC1 [AFATINIB] | > 30 | > 30 | > 30 | > 30 | > 30 | > 30 | > 30 | > 30 | > 30 | 0.87 | 
CC1=C(C(=O)OC(C)C)C(c2cccc([N+](=O)[O-])c2)C(C(=O)OC2CN(C(c3ccccc3)c3ccccc3)C2)=C(N)N1 (stereo not given) [AZELNIDIPINE] | 13 | > 30 | > 30 | > 30 | > 30 | 6.6 | > 30 | 5.8 | > 30 | > 30 | 
CCOC(=O)c1ccc(N)cc1 [BENZOCAINE] | > 10 | > 10 | > 10 | > 10 |  | > 30 | > 10 | > 10 | > 10 |  | > 30
O=C(O)COCCN1CCN(C(c2ccccc2)c2ccc(Cl)cc2)CC1 (stereo not given) [CETIRIZINE] | > 10 | > 30 | > 10 |  |  | > 30 |  |  | > 10 | > 10 | 
NC[C@H]1CC[C@H](C(=O)Oc2ccc(CCC(=O)O)cc2)CC1 [CETRAXATE] | > 30 |  | > 30 | > 30 | > 30 | > 30 |  |  |  |  | 
CC(=O)O[C@]1(C(C)=O)CC[C@H]2[C@@H]3C=C(Cl)C4=CC(=O)[C@@H]5C[C@@H]5[C@]4(C)[C@H]3CC[C@@]21C [CYPROTERONE ACETATE] | > 10 | > 30 | > 10 |  |  | > 30 |  | > 30 | > 10 |  | > 30
CN[C@]1(c2ccccc2Cl)CCCCC1=O [ESKETAMINE] | > 30 | > 30 | 0.79 | > 30 | > 30 | > 30 | > 30 | > 30 | > 30 |  | 
CNCCc1ccc(OC(=O)C(C)C)c(OC(=O)C(C)C)c1 [IBOPAMINE] | 8.4 | > 30 | > 30 | > 30 | > 30 | > 30 | > 30 | > 30 | > 30 | > 30 | 
CCOC(=O)C1=C(C)NC(C)=C(C(=O)OCC)C1c1ccccc1/C=C/C(=O)OC(C)(C)C [LACIDIPINE] | > 30 | > 30 | > 30 | > 30 | > 30 | 12 | > 30 | > 30 | > 30 |  | 
COC(=O)C1=C(C)NC(C)=C(C(=O)OCCN2CCN(C(c3ccccc3)c3ccccc3)CC2)C1c1cccc([N+](=O)[O-])c1 (stereo not given) [MANIDIPINE 6300] | > 30 | > 30 | > 30 | > 30 | > 30 | > 30 | > 30 | > 30 | > 30 | > 30 | 
CN(Cc1cnc2nc(N)nc(N)c2n1)c1ccc(C(=O)N[C@@H](CCC(=O)O)C(=O)O)cc1 [METHOTREXATE] | > 10 | > 30 | > 10 | > 10 |  | > 30 |  | > 30 | > 10 |  | > 30
O=C1c2cccc3c2[C@H](CCC3)CN1[C@@H]1CN2CCC1CC2 [PALONOSETRON] | 4 | > 30 | > 30 | > 30 | > 30 | > 30 | > 30 | > 30 | > 30 | > 30 | 
OC[C@H]1O[C@@H](n2cnc3c2NC=NC[C@H]3O)C[C@@H]1O [PENTOSTATIN] | > 30 | > 30 | > 30 | > 30 | > 30 | > 30 | > 30 | > 30 | > 30 | > 30 | 
Cc1cccc(C)c1NC(=O)CC12CCCN1CCC2 [PILSICAINIDE] | > 30 | > 30 | > 30 | > 30 | > 30 | > 30 | > 30 | > 30 | > 30 | > 30 | 
CC(C)c1cccc(C(C)C)c1O [PROPOFOL] | > 30 | > 30 |  | > 30 |  | > 30 | > 30 | > 30 | > 30 |  | > 30
CCCN1CC(NS(=O)(=O)N(CC)CC)CC2Cc3c(O)cccc3CC21 (stereo not given) [QUINAGOLIDE] | 11 | > 30 | > 30 |  | > 30 | > 30 | > 30 | 21 | > 30 | 11 | 
C[C@]12CCC(=O)C[C@@H]1CC[C@@H]1[C@@H]2CC[C@]2(C)[C@@H](O)CC[C@@H]12 [STANOLONE] | > 30 | > 30 | > 30 | > 30 | > 30 | > 30 | 0.0396 | > 30 | > 30 |  | 
O=C1OC(OC(=O)c2cccnc2Nc2cccc(C(F)(F)F)c2)c2ccccc21 (stereo not given) [TALNIFLUMATE] | > 30 | > 30 | > 30 | > 30 | > 30 | 5.2 | > 30 | > 30 | > 30 | > 30 | 
O=S1(=O)CCN(CN2CCS(=O)(=O)NC2)CN1 [TAUROLIDINE] | > 30 |  | > 30 |  | > 30 | > 30 | > 30 | > 30 |  | 20 | 
CCOC(=O)c1c(CSc2ccccc2)n(C)c2cc(Br)c(O)c(CN(C)C)c12 [UMIFENOVIR] | 12 | > 30 | > 30 | > 30 | > 30 | 5.6 | > 30 | 21 | > 30 | 26 | 
